# Like-named read-outs stand apart in the source and are kept apart here.
# Experiments:
# LDLR [1] = test: Hamster liver LDLR mRNA and protein expression (real-time RT-PCR, western blot); assay type: in vivo, Chinese hamster; settings: 100 mg/kg/day of berberine, end of treatment
# Protocol: Two weeks prior to treatment, female Chinese hamsters purchased from the National Institute of Vaccine and Serum research (Beijing, China) were switched to a high fat and cholesterol diet (10% lard, 10% egg yolk powder and 1% cholesterol). After two weeks, groups of 14 hamsters were given either 10 mg/kg/day of berberine through peritoneal injection, 20 mg/kg/day of berberine through peritoneal injection, 50 mg/kg/day, 100 mg/kg/day of berberine orally or saline for ten days. Serum cholesterol, triglyceride and LDL levels were measured after 4 h fasting before, during and after the course of the treatment. Four hours after the course of the treatment, the animals were sacrificed and their livers removed for analysis.
# At the end of treatment, three animals from each group were killed and liver LDLR mRNA and protein expressions were examined by quantitative real-time RT-PCR and western blot analysis. For the real-time RT-PCR, reverse transcription with random primers using Superscript II at 42° C. for 30 minutes with 1 μg of total RNA was performed using the ABI Prism 7900-HT Sequence Detection System and Universal MasterMix (Applied Biosystems, Foster City, Calif.). LDLR and GAPD mRNA expression levels were determined using the human LDLR and GAPD Pre-developed TaqMan Assay Reagents (Applied Biosystems).
# LDLR [2] = test: Cell surface LDLR protein on Bel-7402 cells (FACS); assay type: cell-based, human; settings: Bel-7402 cells treated with 5 μg/ml
# Protocol: Bel-7402 cells treated with 5 μg/ml of berberine were detached with cell removal buffer containing EDTA, washed and resuspended in FACS solution (PBS with 0.5% BSA and 0.02% sodium azide) at a density of 1×10^6 cells/ml. Cells were then incubated with monoclonal antibody to LDLR (Santa Cruz Biotechnology, Inc., Santa Cruz, Calif.) at a final dilution of 1:50 and left at room temperature for 1 hour. The cells were then reacted with isotope matched, nonspecific mouse IgG as a control for nonspecific staining. The cells were then washed and stained with FITC conjugated goat antibody to mouse IgG (Santa Cruz Biotechnology, Inc., Santa Cruz, Calif., 1:100 dilution) and the fluorescence intensity was analyzed by FACS (FACSort, Becton Dickinson, Franklin Lakes, N.J.).
# HMG-CoA reductase mRNA = HMG-CoA reductase mRNA stability in HepG2 cells; assay type: cell-based, human; settings: HepG2, berberine 15 hours then actinomycin D
# Protocol: HepG2 cells were cultured and then left alone or treated with berberine for 15 hours. After 15 hours, actinomycin D (5 μg/ml) was added to cells at 0, 20, 40, 60, 90, 120, or 150 minutes. Total mRNA was isolated and analyzed by Northern blot for the amount of LDLR mRNA. […] In contrast, the mRNA stability of HMG-CoA reductase was not altered by berberine.
# InsR = test: Cell surface InsR expression in HepG2 cells (flow cytometry); assay type: cell-based, human; settings: HepG2, 2.5-15 μg/ml, eight hours
# Protocol: The effect of berberine was also time-dependent. HepG2 cells were treated with 7.5 μg/ml for 0, 2, 4, 6, 8 or 24 hours and total RNA was isolated as described above for slot blot and RT-PCR assays of InsR mRNA and ACTB mRNA expression. The level of InsR mRNA increased 4 h after exposure of cells to berberine and reached the peak level of 2.5-fold of the control at 8 h; the expression of InsR mRNA remained high for at least 24 h (FIG. 16). HepG2 cells cultured with 0, 2.5, 5, 10 or 15 μg/ml of berberine or normal mouse IgG (FIG. 17) for eight hours then detached, washed and resuspended in FACS solution (PBS with 0.5% BSA and 0.02% sodium azide) at a density of 1×10^6 cells/ml. Cells were then incubated with a monoclonal antibody to InsR (NeoMarkers, Fremont, Calif.) at a final dilution of 1:100 (room temperature, 0.5 h). An isotype-matched, nonspecific mouse IgG was used as a control for nonspecific staining. Then, cells were washed and stained with FITC conjugated goat-anti-mouse IgG (Santa Cruz Biotech, 1:200 dilution). The fluorescent intensity was examined by flow cytometry (FAC Sort, Becton Dickinson, Calif.).
# [3] = test system: patients with type 2 diabetes; assay type: in vivo, human
# From the text: Ninety-seven hyperglycemic patients (54 males and 43 females) with fasting blood glucose>7 mmol/L and post-prandial blood glucose>11.1 mmol/L were enrolled in a study at the Nanjing First Hospital in Nanjing, China. The patients were asked to end any current treatments for hyperglycemia at least 2 weeks prior to commencement of the study.
# Fifty of the patients (male/female, 27/23; age 57±8y) were randomly assigned to be given 0.5 gram twice a day (1g/day total) of berberine (Nanjing Second Pharmaceutics, Inc., Nanjing, China), orally for 2 months. Out of these 50 patients, 25 had hyperlipidemia, 9 had hypertension and 2 had cardiovascular disease. Twenty-six patients (male/female, 15/11; age 56±11 y) were given 1.5 grams of metformin (Double-Crane Pharmaceutical, Inc., Beijing, China) per day, orally for two months. Of these twenty-six patients, 11 had hyperlipidemia, and four had hypertension. The remaining twenty-one patients (male/female, 11/10, age 49±10 y) were given 4 mg per day of rosiglitazone (Glaxowelcome, UK), orally for two months. Of these 21 patients, ten had hyperlipidemia and four had hypertension. Metformin and rosiglitazone served as reference controls as they are standard treatments for type 2 diabetes.
# Blood samples were taken prior to the commencement of therapy and after completion of the therapy.
# hyperlipidemia patients = settings: for Cholesterol / HDL Protein / LDL Protein / Triglycerides: hyperlipidemia patients, n = 32
# Protocol: After three months, fasting serum concentrations of cholesterol, triglycerides, HDL and LDL were measured using standard blood lipid tests.
# [4] = patients with type 2 diabetes, After treatment (2 months), oral: berberine 1 g/day, metformin 1.5 g/day, rosiglitazone 4 mg/day, Mean ± SE
# [5] = patients with type 2 diabetes, Before treatment (baseline), Mean ± SE
# [6] = type 2 diabetes patients, 1 g/day orally, 2 months
# [7] = After berberine treatment (3 months)
# [8] = Before berberine treatment (baseline)
compound,measurement,setting,value
COc1ccc2cc3[n+](cc2c1OC)CCc1cc2c(cc1-3)OCO2 [berberine],increase in LDLR mRNA in hamster livers,LDLR [1],3.5 fold
same,increase in LDLR protein in hamster livers,LDLR [1],2.6 fold
same,increase of cell surface LDLR protein expression,LDLR [2],4 times
same,mRNA stability of HMG-CoA reductase,HMG-CoA reductase mRNA,not altered
same,cell surface InsR expression,InsR,increased cell surface expression
same,serum insulin levels,"[3]; after treatment, normal range 2.5-13 mlU/L",decreased into the normal range
same,ALT after treatment,"[3]; human, in vivo",23±16
same,BUN after treatment,"[3]; human, in vivo",5.7±1.2
same,Cr after treatment,"[3]; human, in vivo",71±14
same,r-GT after treatment,"[3]; human, in vivo",31±23
same,HbA1c,[3]; [4],6.8 ± 0.2 %
same,Triglyceride,[3]; [4],1.4 ± 0.1 mmol/L
same,FBG (fasting blood glucose),[3]; [5],10.4 ± 0.4 mmol/L
same,HbA1c,[3]; [5],8.0 ± 0.3%
same,Triglyceride,[3]; [5],1.7 ± 0.1 mmol/L
same,reduction of serum cholesterol,[3]; type 2 diabetes patients of berberine group (50% also had hyperlipidemia),24%
same,lowering of fasting blood glucose,[3]; [6],26%
same,lowering of hemoglobin A1c (HbA1c),[3]; [6],18%
same,lowering of triglycerides,[3]; [6],18%
same,"kidney functions (creatine, blood urea nitrogen, total bilirubin)","hyperlipidemia patients; human, in vivo",did not change kidney functions
same,reduction of alanine aminotransaminase,"hyperlipidemia patients; human, in vivo",approximately 48%
same,reduction of aspartate aminotransaminase,"hyperlipidemia patients; human, in vivo",~36%
same,reduction of gamma glutamyl transpeptidase,"hyperlipidemia patients; human, in vivo",~41%
same,side effects,"hyperlipidemia patients; human, in vivo",no side effects were observed with the exception of one patient having mild constipation during treatment
same,Cholesterol,hyperlipidemia patients; [7],4.2 ± 0.9 mmol/L
same,HDL Protein,hyperlipidemia patients; [7],1.1 ± 0.3
same,LDL Protein,hyperlipidemia patients; [7],2.4 ± 0.6 mmol/L
same,Triglycerides,hyperlipidemia patients; [7],1.5 ± 0.9 mmol/L
same,Cholesterol,hyperlipidemia patients; [8],5.9 ± 0.7 mmol/L
same,HDL Protein,hyperlipidemia patients; [8],1.1 ± 0.3
same,LDL Protein,hyperlipidemia patients; [8],3.2 ± 0.7 mmol/L
same,Triglycerides,hyperlipidemia patients; [8],2.3 ± 1.8 mmol/L

# From patent US20080081781A1, “Methods and compositions for the treatment of metabolic syndrome” (priority 2004, published 2008)
